Experimental data from patent publication US20060111333A1, “Structural, behavioral characterization, and synthesis of attractants for migratory lamprey” (priority 2004, published 2006).

Columns and labels:
[1] = system: olfactory epithelium of migratory adult sea lamprey; assay: electro-olfactogram (EOG) recording of olfactory activity; format: in vivo; conditions: odorant pulsed over the nose, FIG. 2 insets
Excerpt: Using electro-olfactogram recording (EOG) to screen for olfactory activity. The EOG measures extracellular voltage transients believed to reflect large numbers of olfactory receptor generator potential (Sorensen et al. in: The Physiology of Fishes, 2nd ed., (ed., R. E. Evans), 375-406, (CRC Press, FL, 1998)). To accomplish EOG recording, freshly-captured migratory adult sea lamprey were anesthetized, immobilized, and their olfactory epithelium exposed following established protocols (Li et al., J. Gen. Physiol., 105, 569-589 (1995); and Li et al., Petromyzon marinus, J. Comp Physiol. A., 180, 429-438 (1997)). One electrode was placed on the head and the other positioned to find a region of maximum sensitivity to our standard, 10^−5 M L-arginine. Test odorants were then pulsed over the nose for 3-sec intervals with breaks. All stimuli were tested at least twice. Aliquots of appropriate solvents were diluted and tested as controls.

[2] = system: migratory sea lampreys; assay: behavioral assay in large 2-choice maze; format: in vivo, sea lamprey; conditions: 14 trials of 4 lampreys
Method: Confirming biological activity using a behavioral assay. Migratory sea lampreys were tested at night in large (9×1.8 meters (m)) 2-choice mazes supplied with natural lake and rivers waters (400 L min^−1) designed to simulate the scenario of lamprey encountering a river plume in a lake. Test odors were pumped down one side (in a way shown by dye to effect complete mixing) and appropriate controls (carriers, etc.) down the other. Trials lasted 15 min and commenced when groups of 4 sea lamprey were released from the upstream section of the maze and the time they spent in the stimulus side or its control noted. Experiments typically employed 14 trails and were evaluated by t-test after arc-sign transformation (Vrieze et al., Can. J. Fish. Aquat. Sci., 58, 2374-2385 (2001)).

[3] = system: adult lamprey olfactory system; conditions: with high specificity; Polkinghorne 2001, Li 1995, Li 1997; cited from earlier work

Molecule | EOG threshold (lowest concentration detected by EOG recording) [1] | behavioral activity (attraction) in maze ([2]; at 10^−12 M) | behavioral activity (attraction) in maze ([2]; at 10^−13 M) | behavioral activity (attraction) in maze ([2]; at 10^−11 M) | concentration at which the adult lamprey olfactory system detects the product [3]
CC(C)[C@@H](CC[C@@H](C)[C@H]1CC[C@H]2[C@@H]3[C@H](OS(=O)(=O)[O-])C[C@H]4C[C@@H](NCCCN5CCCC5=O)CC[C@]4(C)[C@H]3CC[C@]12C)OS(=O)(=O)[O-].[Na+].[Na+] [compound 3, petromyzonamine disulfate] | 10^−13 M | strongly attracted | strongly attracted | – | –
C[C@H](CCCOS(=O)(=O)[O-])[C@H]1CC[C@H]2[C@@H]3[C@H](O)C[C@H]4C[C@H](O)CC[C@]4(C)[C@H]3C[C@H](O)[C@]12C.[Na+] [compound 1, petromyzonol sulfate, reference compound] | below 10^−12 M | – | – | only weak and somewhat inconsistent behavioral activity | 10^−12 Molar (M)
petromyzosterol disulfate [compound 2] | 10^−12 M | – | – | consistently attractive | –
C[C@H](CCC(=O)O)[C@H]1CC[C@H]2[C@@H]3[C@H](O)C[C@H]4C[C@H](O)CC[C@]4(C)[C@H]3C[C@H](O)[C@]12C [ACA, allocholic acid] | – | – | – | – | 10^−11 Molar (M)
